In patent US20060154922A1, “Muscarinic agonists” (ELILILLY AND COMPANY, priority 2003, published 2006):
Like-named read-outs stand apart in the source and are kept apart here.

System: Male Sprague-Dawley rats
Conditions: six-hour delay

## Nc1c2c(nc3ccccc13)CCCC2 [Tacrine, tacrine]
3 mg/kg s.c. immediately after the sampling phase
  retention (errors in the retention session): not
10 mg/kg s.c. immediately after the sampling phase
  retention (errors in the retention session): significantly improved retention
